The conditions of data set [1]: cited from earlier work.
Data set [2] concerns HepG2 cells. The data set can be described thus: rtPCR gene expression analysis (TaqMan array card). In kind it is cell-based, human. The method, then:
Target cancer gene pathways were analyzed using a custom Taqman® array card exploring 90 unique genes associated with cancer related pathways (Kanehisa, Goto et al. 2010).
Two million HepG2 cells in IMDM media with 20% FBS, and 1% ethanol were seeded in T75 flasks and incubated at 37° C., 7.5% CO2 until 70-80% confluent (approx. […]). […] Untreated cells were included as a negative control. Glyceraldehyde-3-phosphate dehydrogenase (GAPDH) was included as an endogenous control and used for normalization of the data.
Following a 6-hour incubation with the test compounds, the RNA was extracted using Invitrogen's Dynabead mRNA DIRECT kit using the recommended protocol to provide 50 μL of a purified mRNA solution. Fifty μL of RT master mix was mixed into the mRNA solution and the mixture left to react at 37° C. for 60 minutes. Reverse transcriptase inactivation was performed at 95° C. for 5 minutes and the resulting cDNA samples were kept at 4° C. until use. Fifty-five microliters of TaqMan Fast Advance master mix were added to an equal amount of cDNA sample containing 1 μg/100 μl of cDNA, which was loaded into each card reservoir. The cards were centrifuged twice at 1200 RPM for 3 minutes in a Legend XFR centrifuge and the rtPCR reaction was conducted in a QuantStudio7 PCR instrument using the recommended settings with 40 amplification cycles. Data processing was done using ThermoFisher's Connect™ application.
In general terms: In qPCR the cycle at which signal appears reflects the starting amount.

The subject of data set [3] is HepG2 cells. The data set can be described thus: HepG2 cell proliferation assay (XTT). It counts as cell-based, human. To be noted: IMDM media with 20% FBS and 1% ethanol, read-out: predetermined IC50 concentrations. Here is the method: HepG2 cells were obtained from the American Type Culture Collection (ATCC). Normal hepatocyte pool of cells was acquired from Xenotech. Cryopreserved cells in DMEM containing 5% DMSO were thawed and diluted 10-fold in phenol red free DMEM media containing 10% fetal bovine serum, 100 μg/ml penicillin/streptomycin, supplemented with Glutamax™ and sodium pyruvate. Subsequently, cells were centrifuged at 20 g for 10 minutes. The cells were resuspended in the same media with added Revitacell® to a concentration of […]. Ninety-six well cell culture treated flat bottom plates were seeded with 7.5×10^3 cells in 100 μl and incubated at 37° C., 7.5% CO2, >95% relative humidity for 18 hours to allow cellular adhesion after which media was replaced with like media (DMEM, IMDM, Williams E) containing 1 to 20% FBS and various test compounds (10 μg/ml to 100 ng/ml). After 48 hours (2 doublings of cells), sodium; 2-(2-methoxy-4-nitro-5-sulfonatophenyl)-3-(2-methoxy-4-nitro-5-sulfophenyl)-N-phenyltetrazol-3-ium-5-carboximidate (XTT) (300 μg/ml) was added, and cells incubated for 2 hours. Formazan production was measured at 450 nm on a Varioskan lux spectrophotometer. Non-specific absorption was measured at 660 nm and subtracted from the reference measurement at 450 nm. Experiments were performed in triplicates (n=3). […]
The objectives of this example are to, first, establish the procedure of a two-component interaction study; and second, establish a method of analysis to identify potential interactions among the two components/compounds. […] Following 48 hours of incubation, the IC50 values of various mixtures were obtained and compared with the pure compound's IC50 values and predicted/calculated IC50 values for the various mixtures. […]
Samples from the serial dilutions were analyzed by LC-MS/MS to orthogonally confirm concentrations. […]
To assess potential interactions, the IC50 values for individual cannabinoids in the control lanes were calculated and used to predict and IC50 value for the summation of their individual components.
For orientation: Formazan colour is commonly taken as a measure of viable cells.

In data set [4] the test system is PDX tumor model (575). The data set can be described thus: In vivo PDX model with drug-loaded nanonails. Details: species or system NCG mice. The conditions noted are these: intra-tumoral nanonail, 72 hours. Here is the method: Drug candidates were mixed with FITC-labeled PEG-5000 with a milligram ratio of 2:8 in a suitable solvent and lyophilized to dryness. Samples of the resultant mixtures (10 mg) were loaded into nanonails (Kibur Medical Inc.), a device invented to test multiple samples in a single tumor. The dimension of the cylindrical device is 4 mm×820 μm containing 18 reservoirs 200 μm wide and 250 μm deep. The loaded devices were kept at −80° C. until tumor implant. NCG mice (female, 8-12 weeks old) from Charles River were injected subcutaneously with 100 μL of LIXF-575 cells per mouse. The body weight of the mice and caliper measurements of the tumors were performed every 3 days until the tumors reached 300-400 mm^3 (about 12 weeks). Nine mice were used for intra-tumoral implantation. […]

Where [5] appears, read: Cell Cycle, 6 h at IC50 concentration, relative to negative control.
[6] abbreviates: MAP kinase, 6 h at IC50 concentration, relative to negative control.
Where [7] appears, read: PI3K pathway, 6 h at IC50 concentration, relative to negative control.

≈ marks a conversion by molar mass, not a printed value.

As to `C=C(C)[C@@H]1CCC(C)=C[C@H]1c1c(O)cc(CCCCC)c(C(=O)O)c1O` [CBDA, cannabidiolic acid], the “times more water soluble compared to CBD” value in data set [1] (CBDA versus its decarboxylated counterpart) is recorded as “about 25,000 times”. For the same compound, the water solubility in data set [1] was 17.5 mg/mL (≈ 48.8 mM).
As to `CCCCCc1cc2c(c(O)c1C(=O)O)-c1cc(C)ccc1C(C)(C)O2` [CBNA, cannabinolic acid], in data set [2] (Angiogenesis, 6 h at IC50 concentration, relative to negative control), the “ΔΔCt VEGFA” value is −2.861. For the same compound, in data set [2] (setting [5]), the “ΔΔCt BAX” value was −1.062, the “ΔΔCt BECN1” value was −1.7, the “ΔΔCt CCND2” value is listed as −1.539 and the “ΔΔCt CCNE1” value is −2.445. Also, in data set [2] (setting [5]), the “ΔΔCt CDK1” value stood at 1.051, the “ΔΔCt CDK2” value is given as 1.102 and the “ΔΔCt MNT” value was −1.868. In addition, the “ΔΔCt MITF” value in data set [2] (Drug Resistance, 6 h at IC50 concentration, relative to negative control) is listed as −2.367. For the same compound, the “downregulation of the ERBB2/HER2 receptor” value in data set [2] (HepG2, 6 hour timeframe) is 8 fold. For the same compound, in data set [2] (setting [6]), the “ΔΔCt ERBB2” value came out at 3.097, the “ΔΔCt MAP1LC3A” value is −1.26, the “ΔΔCt MAP2K2” value was −1.607 and the “ΔΔCt RASA1” value is reported as −1.904. In data set [2] (setting [7]), the “ΔΔCt PIK3CA” value was −1.639 and the “ΔΔCt PTEN” value is listed as −1.446. For the same compound, the “ΔΔCt SMAD3” value in data set [2] (TGF signaling, 6 h at IC50 concentration, relative to negative control) came to 2.577. The IC50 in data set [3] is 20 µM. Besides, the “cell proliferation (Ki67) in nanonail implanted 575 PDX tumors” value in data set [4] is reported as “not significantly affected”.
